Experimental data as given in a melting point compilation (Tetko et al.; mined from patent text by program, amines drawn as free bases though some values may be those of a salt).
Residues, ends and D or L forms follow the SMILES beside them. *: point of attachment. Propionyl = CCC(=O)*; NHPh = c1ccc(N*)cc1

Row | SMILES | melting point
1 | O=C(O)Cc1nc(-c2c(Cl)cccc2Cl)no1 | 124 to 126 °C
2 | CC(C)(F)[C@H]1C(=O)N[C@@H]1CC(=O)O (racemic) | 118 to 122 °C
3 | Nc1ccc(C23CC(C2)C(=O)N(CC2CCCCC2)C3=O)cc1 | 140 to 146 °C
4 | CC(C)(C)Oc1nc2cc(F)c([N+](=O)[O-])cc2nc1Cl | 141 to 143 °C
5 | C[C@]12CCC(=O)C=C1CCc1cc(Cl)ccc12 | 94 to 96 °C
6 | C=C(C)OC(=O)N1C(=O)[C@H](C)Nc2cc(Cl)ccc21 | 158 to 159 °C
7 | COc1cc(C(=O)N[C@@H](CCC(=O)O)C(=O)O)ccc1NCCCc1c(N)nc(N)[nH]c1=O | 165 to 184 °C
8 | O=C1CCS(=O)(=O)c2sccc21 | 121 to 122 °C
9 | CON=C(C(=O)OC)c1cccc(O)c1 | 39.5 to 40.5 °C
10 | ClCCOc1cccc2nc[nH]c12 | 153 to 154 °C
11 | O=C(Nc1cc(Cl)cc(Cl)c1)C(Cl)Cl | 133 to 135 °C
12 | CCC(CC)c1ccc(Cl)c2nc3n(c12)CCCCN3c1ccc(OC)nc1OC | 85 to 88 °C
13 | CC(C)(C)NC(=O)[C@@H]1C[C@@H]2CCCC[C@@H]2CN1C[C@H]1OC(=O)N[C@H]1Cc1ccccc1 | 202 to 204 °C
14 | CCCCCCC1(CCCCCC)c2cc(C#N)ccc2-c2ccc(C#N)cc21 | 116 to 118 °C
15 | COc1cc(-n2cc(C(=O)O)c(=O)c3cc(F)c(F)c(Cl)c32)ccc1F | > 280 °C
16 | CCC(=O)c1cc(Br)no1 | 35 to 37 °C
17 | CCCCC1=C(C)C=NC1=O | 95 to 97 °C

Row | SMILES | melting point
18 | Cc1ccc([N+](=O)[O-])c(C(N)=O)c1 | 172 to 175 °C
19 | CC(C)(C)SC[C@H](NC(=O)C(CS)Cc1ccccc1)C(=O)O (stereo partly drawn) | 68 to 75 °C
20 | Cc1nn(-c2cc(OS(C)(=O)=O)c(Cl)cc2F)c(C)c1[N+](=O)[O-] | 150 to 152 °C
21 | Cc1cc(CC#N)cc(Cc2nc3c(F)c(F)ccc3s2)c1 | 84 to 86 °C
22 | O=C(Nc1nc(-c2ccco2)c(C(=O)C2CCOCC2)s1)c1ccc(F)cc1 | 131 to 132 °C
23 | CC(C)(C)c1cc(OCCCCC#N)cc(C(C)(C)C)c1 | 61 to 64 °C
24 | CCCSc1sc(C(N)=O)c2c1-c1[nH]ncc1CC2 | 163 to 164 °C
25 | C=C[C@@H]1Oc2ccccc2[C@H]1CC(=O)O (relative stereo) | 79 to 81 °C
26 | CCC(=O)N[C@@H](C)C(=O)N1CCC[C@H]1C(=O)Nc1ccccc1 (Propionyl-Ala-Pro-NHPh) | 156 to 157 °C
27 | CN(C)Nc1cc(F)ccc1[N+](=O)[O-] | 67 to 71 °C
28 | O=C(NOCCO)c1cc(F)c(F)c(F)c1Nc1ccc(I)cc1Cl | 183 to 184 °C
29 | CC(=O)OC1CSC(Oc2cccc(-c3cccnc3C)c2)C(OC(C)=O)C1OC(C)=O (stereo not drawn) | 153 °C
30 | CC(=O)n1nc(S(=O)(=O)Cl)nc1N | 166 to 168 °C
31 | O=C(Nc1ccc(NC(=O)OCCCl)c([N+](=O)[O-])n1)OCCCl | 118 to 119 °C
32 | CNc1c(C)cc([N+](=O)[O-])cc1C | 99 °C
33 | CN1C(=O)Cc2cc(C3=NNC(=O)C4CC34)ccc21 (stereo not drawn) | 265 to 267 °C

Continued, values first:

Row | melting point | SMILES
34 | 112 to 113 °C | CCOC(=O)/C=C/c1cnn(Cc2ccc(OCc3nc(-c4ccccc4)oc3C)cc2)c1
35 | 159 to 162 °C | Cc1cc(-c2ccccc2)n(-c2ccc(C(=O)O)cc2)n1
36 | 251 to 254 °C | CC(C)(Cc1ccccc1)C(NC(=O)c1ccncc1)Nc1c(Nc2cccnc2)c(=O)c1=O (stereo not drawn)
37 | 115 to 117 °C | C#CCN(Cc1cc2c(=O)n(C)c(CN3CCN(CCO)CC3)nc2cc1Cl)c1ccc(C(=O)NCc2cccnc2)cc1
38 | 104 to 106 °C | O=C(CCc1ccccc1)N[C@H]1COC1=O
39 | 226 to 227 °C | Nc1nc(SC(c2ccccc2)c2ccccc2)c2[nH]cnc2n1
40 | 243 to 244 °C | Cn1nnnc1Cc1ccc(NC(=O)/C=C/c2cnn(C)c2-c2ccc(F)cc2)cc1
41 | 92 °C | Clc1ccc(C(=Cn2cnnn2)OCc2ccccc2)c(Cl)c1
42 | 100 to 102 °C | Cc1cncn1Cc1nc2ccccc2n1-c1ccccc1
43 | 169 to 170 °C | O=C(NCCO)c1cccc(-c2ccc3cnn(-c4ccc(Cl)cc4Cl)c3n2)c1
44 | 187 to 189 °C | Nn1ccn(C2CCc3ccccc3C2)c1=S (stereo not drawn)
45 | 150 °C | CCCN(CCC)C1Cc2c[nH]c3ccc(C(=O)c4ccccc4)c(c23)C1 (stereo not drawn)
46 | 297 to 300 °C | CCCc1nn(C)c2c(=O)[nH]c(Cc3ccc(-n4cnnc4)cc3)nc12
47 | 113 to 115 °C | O=C(CN1C(=O)CC1S(=O)c1ccccc1)NCCCCCCc1ccc(Cl)cc1 (stereo not drawn)
48 | 46 to 49 °C | Cc1cc(C2(C(F)(F)F)CC(C#N)=C(c3ccccc3)O2)ccc1NC(=O)OC(C)(C)C (stereo not drawn)
49 | 79 to 80 °C | COc1nc2ccccc2cc1NC(=O)N1CCN(c2ccccc2Cl)CC1
50 | 210 to 215 °C | O=C(O)c1cccc(Oc2cccc(-c3nn(Cc4ccc(C(F)(F)P(=O)(O)O)c(Br)c4)c(=Nc4ccc(Cl)c(Cl)c4)s3)c2)c1
51 | 155 to 157 °C | COc1ccc(Cl)cc1NC(=O)[C@H]1[C@H](c2ccccc2)C1(C)C (relative stereo)
52 | 157 to 159 °C | N#CC(NC(=O)c1cccc(Cl)c1)n1ccnn1 (stereo not drawn)
53 | 87 to 90 °C | CC1(CC(=O)O)OCCc2c1[nH]c1ccccc21 (stereo not drawn)
54 | 163 to 165 °C | CCCCc1ncc(/C=C2\C(=O)NC(=O)N2CCCC)n1Cc1ccc(C(=O)O)cc1
55 | 178 to 179 °C | Cc1nc2c3c(c(C(=O)N(C)C)cc2n1C)CCC1(Cc2ccccc2C1)N3
56 | 113 to 118 °C | CCCNCC(=O)N1c2ccccc2N2CCc3cccc(c32)C1C (stereo not drawn)
57 | 56 to 66 °C | CCC(CC)C(NS(=O)(=O)c1ccc(Cl)c(Cl)c1)c1ccnn1-c1ccccc1 (stereo not drawn)
58 | 112 to 114 °C | CN(CCc1ccc(N)cc1)C1Cc2ccc(N)cc2C1 (stereo not drawn)
